Values after ≈ are worked out from the molar mass of the structure shown.
How the values were obtained:
[1] = parameters: method as in Rodloff et al., 2008; settings: ref Rodloff et al., 2008; cited from earlier work
HepG2 cells = assay: XTT assay, metabolic active cells; assay type: cell-based, human; settings: compound 2mg/ml
Description: (§1) In parallel the % of metabolic cells was measured using the XTT [2,3-Bis-(2-methoxy-4-nitro-5-sulfophenyl)-2H-tetra zolium-5-carboxanilide] assay (Thermo Scientific). Briefly, after treatment with the fungal extract or the different compounds cells were incubated with XTT and phenanzine methosulfate (Thermo Scientific) for 2 h. Absorbance was measured at 450 nm and % of metabolic active cells was calculated versus the control sample (media). As controls we incubated the cells without fungal cultures or compound, and with VPA alone.

Caco2 cells = assay: XTT assay, metabolic active cells; assay type: cell-based, human; settings: compound 2mg/ml, XTT
Description: as §1

[2] = system: MRSA Staphylococcus (S.) aureus B335466; assay: Determination of MIC; assay type: cell-based
Description: (§2) Minimal inhibitory concentrations (MICs) of purified compounds and commercially available standards were assessed against S. aureus, C. albicans, P. aeruginosa, K. pneumoniae, E. coli, ESBL K. pneumoniae, ESBL E. coli and the two MRSA strains (B337919 and B335466). Stock solutions of 5 × 10^6 μg/l of p-hydroxybenzaldehyde, and phenyllactic acid were prepared using water. Stock solutions of 1 × 10^8 μg/l indole-3-carboxylic acid, PAA and indole-3-acetic acid were prepared using methanol and diluted with water (working solution of 5 × 10^6 μg/l). Stocks of 1 × 10^6 μg/l of cFP and cPM were dissolved in water. […] Methanol and water were used as control.

[3] = system: MRSA Staphylococcus (S.) aureus B337919; assay: Determination of MIC; assay type: cell-based
Description: as §2

K. pneumoniae = assay: Determination of MIC; assay type: cell-based, Klebsiella pneumoniae
Description: as §2

ESBL K. pneumoniae = assay: Determination of MIC; assay type: cell-based, Klebsiella pneumoniae
Description: as §2

S. aureus = assay: Determination of MIC; assay type: cell-based, Staphylococcus aureus
Description: as §2

C. albicans = assay: Determination of MIC; assay type: cell-based, Candida albicans
Description: as §2

E. coli = assay: Determination of MIC; assay type: cell-based, Escherichia coli
Description: as §2

ESBL E. coli = assay: Determination of MIC; assay type: cell-based, Escherichia coli
Description: as §2

Caco2 and HepG2 cells = assay type: cell-based; settings: at the determined MIC concentrations; range over compounds and cell lines
Description: (§3) Cytotoxicity of the fungal extract and the identified compounds was determined measuring lactate dehydrogenase release using human intestinal epithelial (Caco2) and human hepatocytic (HepG2) cells. […] Cells were seeded into 96-well plates (5 × 10^4 cells per well) and incubated until a confluent cell layer had developed. After discarding of the media cells were incubated with 50 μl of media and 50 μl of fungal extract or compound (final concentration: PAA 2 × 10^6 μg/l, 4FP 2 × 10^6 μg/l, ICA 2 × 10^6 μg/l, IAA 2 × 10^5 μg/l, PLA 2 × 10^6 μg/l, cPM 2 × 10^6μg/l and cFP 2 × 10^6 μg/l) for 24 h at 37°C. […] LDH release was measured according to the manufacturer’s protocol (Sigma–Aldrich, USA).

[4] = system: human intestinal epithelial (Caco2) cells; assay: Cytotoxicity assay, lactate dehydrogenase release; assay type: cell-based; settings: compound 2mg/ml, 24 h, LDH
Description: as §3

[5] = system: human hepatocytic (HepG2) cells; assay: Cytotoxicity assay, lactate dehydrogenase release; assay type: cell-based; settings: compound 2mg/ml, 24 h, LDH
Description: as §3

[6] = system: ESBL K. pneumoniae strain; assay: Ampicillin in combination; assay type: cell-based, Klebsiella pneumoniae; settings: ampicillin combined with PAA, cPM or cFP
Description: (§4) Furthermore we studied the ability of PAA, cPM and cFP to increase antimicrobial activity of ampicillin against both ESBL and MRSA strains. The combination of cPM (100 mg/l) with ampicillin decreased the MIC value from 100 to 10 mg/l against the MRSA strain B335466 (Figure 5C).

MRSA strain B335466 = assay: Ampicillin MIC alone and in combination; assay type: cell-based; settings: Staphylococcus aureus
Description: as §4

MRSA strain B337919 = assay: Ampicillin MIC alone and in combination; assay type: cell-based; settings: Staphylococcus aureus
Description: as §4

ESBL E. coli strain = assay: Ampicillin in combination; assay type: cell-based, Escherichia coli; settings: ampicillin combined with PAA, cPM or cFP
Description: as §4

[7] = system: Bacillus subtilis, S. aureus and Micrococcus luteus; parameters: method as in Jayatilake et al., 1996; Thomas et al., 2010; settings: ref Jayatilake et al., 1996; Thomas et al., 2010; cited from earlier work
all tested organisms = assay: Determination of MIC, statements over all tested organisms; assay type: cell-based; settings: against the tested microorganisms
Description: as §2

P. aeruginosa = assay: Determination of MIC; assay type: cell-based, Pseudomonas aeruginosa; settings: lowest concentration at which the inhibitory effect was detectable
Description: as §2

co-trimoxazole
accepted MIC values for antibiotics in clinical use [1]: 100 µg/mL

C[C@H]1COc2c(N3CCN(C)CC3)c(F)cc3c(=O)c(C(=O)O)cn1c23 [levofloxacin]
accepted MIC values for antibiotics in clinical use [1]: 0.003 µg/mL

O=C(O)Cc1ccccc1 [PAA, phenylacetic acid]
% of metabolic active HepG2 cells (HepG2 cells): 122.9%
% of metabolic active Caco2 cells (Caco2 cells): 113.54%
MIC [2]: 2000 µg/mL (≈ 14.7 mM)
MIC [3]: 2000 µg/mL (≈ 14.7 mM)
MIC (K. pneumoniae; Klebsiella pneumoniae): 2500 µg/mL (≈ 18.4 mM)
MIC (ESBL K. pneumoniae; Klebsiella pneumoniae): 2500 µg/mL (≈ 18.4 mM)
MIC (S. aureus; Staphylococcus aureus): 2000 µg/mL (≈ 14.7 mM)
MIC (C. albicans; Candida albicans): 2500 µg/mL (≈ 18.4 mM)
MIC (E. coli; Escherichia coli): 2000 µg/mL (≈ 14.7 mM)
MIC (ESBL E. coli; Escherichia coli): 2000 µg/mL (≈ 14.7 mM)
dead cells (Caco2 and HepG2 cells): 3.99–8.61%
% of living Caco2 cells [4]: 6.53%
% of living HepG2 cells [5]: 6.99%

CC1(C)S[C@@H]2[C@H](NC(=O)[C@H](N)c3ccccc3)C(=O)N2[C@H]1C(=O)O [ampicillin]
synergistic or additive effect [6]: No synergistic or additive effect
MIC (MRSA strain B335466; ampicillin alone): 100 µg/mL
MIC (MRSA strain B335466; combined with PAA (1 g/l)): 50 µg/mL
MIC (MRSA strain B335466; combined with cPM (100 mg/l)): 10 µg/mL
MIC (MRSA strain B337919; ampicillin alone): 100 µg/mL
MIC (MRSA strain B337919; combined with cPM (2 g/l)): 50 µg/mL
synergistic or additive effect (ESBL E. coli strain): No synergistic or additive effect

CSCCC1NC(=O)C2CCCN2C1=O [cPM, cyclo-(L-proline-L-methionine)]
% of metabolic active HepG2 cells (HepG2 cells): 107.47%
% of metabolic active Caco2 cells (Caco2 cells): 99.18%
Inhibitory concentration ([2]; lowest concentration at which the inhibitory effect was detectable, MRSA 335): 2.5 g/L
Inhibitory concentration ([3]; lowest concentration at which the inhibitory effect was detectable, MRSA 337): 2.5 g/L
Inhibitory concentration (K. pneumoniae; lowest concentration at which the inhibitory effect was detectable, K. pneumoniae): 5 g/L
Inhibitory concentration (ESBL K. pneumoniae; lowest concentration at which the inhibitory effect was detectable, ESBL K. pneumoniae): 5 g/L
Inhibitory concentration (S. aureus; lowest concentration at which the inhibitory effect was detectable, S. aureus): 2.5 g/L
antimicrobial activity [7]: no antimicrobial activity
Inhibitory concentration (C. albicans; lowest concentration at which the inhibitory effect was detectable, C. albicans): 5 g/L
Inhibitory concentration (E. coli; lowest concentration at which the inhibitory effect was detectable, E. coli): 5 g/L
Inhibitory concentration (ESBL E. coli; lowest concentration at which the inhibitory effect was detectable, ESBL E. coli): 5 g/L
growth inhibitory activity (all tested organisms): 2 g/L
dead cells (Caco2 and HepG2 cells): 3.99–8.61%
Inhibitory concentration (P. aeruginosa): 5 g/L
% of living Caco2 cells [4]: 4.77%
% of living HepG2 cells [5]: 3.99%

— paper PMC4829596 (Frontiers in Microbiology, 2016)
